This is an account of results in patent US10023552B2, “Method of preparing a liquiritigenin precursor” (priority 2014, dated 2018).

For data set [1], the system named is human lung cancer cells A549. As to conditions: cited from earlier work.
For data set [2], the system named is human leukemia cells HL-60. As to conditions: cited from earlier work.
Data set [3] relates to human poorly differentiated gastric cancer line BGC-823. As to conditions: cited from earlier work.
For data set [4], the system named is human liver cancer cells SMMC7721. The note with it: cited from earlier work.
Data set [5] can be described thus: Acute toxicity test (Japan Food Analysis Center). Format: in vivo. As to conditions: tested in Japan Food Analysis Center. Here is the method:
The desired product iso-liquiritigenin were tested for acute toxicity in Japan Food Analysis Center and it was confirmed that there is no toxicity.

Molecules are shown by their SMILES. Like-named read-outs stand apart in the source and are kept apart here.

`O=C1C[C@@H](c2ccc(O)cc2)Oc2cc(O)ccc21` [Liquiritigenin, liquiritigenin]: the “A549 Inhibition %” value in data set [1] (Conc. 1 μg/ml) is 7.76%; in data set [1] (Conc. 10 μg/ml), 35.66%; in data set [1] (Conc. 10 μg/ml, listed as Liquiritigenin (−)), 35.06%; in data set [1] (Conc. 100 μg/ml) it was 93.03%. Moreover, the “HL-60 Inhibition %” value is 50.95% in data set [2] (Conc. 1 μg/ml), 64.40% in data set [2] (Conc. 10 μg/ml) and 99.30% in data set [2] (Conc. 100 μg/ml). Besides, the “BGC-823 Inhibition %” value in data set [3] (Conc. 1 μg/ml) is recorded as 24.41%; in data set [3] (Conc. 10 μg/ml), 73.76%; in data set [3] (Conc. 100 μg/ml), 97.52%. The “SMMC7721 Inhibition %” value in data set [4] (Conc. 1 μg/ml) was 23.17%; in data set [4] (Conc. 10 μg/ml), 96.08%; in data set [4] (Conc. 100 μg/ml), 98.00%.

Take `COc1cccc2c1C(=O)c1c(O)c3c(c(O)c1C2=O)C[C@@](O)(C(=O)CO)C[C@@H]3O[C@H]1C[C@H](N)[C@H](O)[C@H](C)O1` [adriamycin, reference compound]: the “A549 Inhibition %” value in data set [1] (Conc. 1 × 10^−5 Mol/l) is 90.44%; in data set [1] (Conc. 1 × 10^−6 Mol/l), 16.42%; in data set [1] (Conc. 1 × 10^−7 Mol/l) it was 16.42%. Further, the “HL-60 Inhibition %” value in data set [2] (Conc. 1 × 10^−5 Mol/l) is on record as 99.09%. Moreover, the “BGC-823 Inhibition %” value in data set [3] (Conc. 1 × 10^−5 Mol/l) was 97.67%; in data set [3] (Conc. 1 × 10^−6 Mol/l) it was 45.80%; in data set [3] (Conc. 1 × 10^−7 Mol/l), 17.86%. The “SMMC7721 Inhibition %” value in data set [4] (Conc. 1 × 10^−5 Mol/l) is 97.47%; in data set [4] (Conc. 1 × 10^−6 Mol/l) it was 58.40%; in data set [4] (Conc. 1 × 10^−7 Mol/l), 10.28%.

In the case of `O=C(/C=C/c1ccc(O)cc1)c1ccc(O)cc1O` [iso-liquiritigenin], in data set [5], the acute toxicity entry is listed as “no toxicity”.
